In patent publication US8809368B2, “Compounds affecting gap junction activity” (Kansas State University Research Foundation, priority 2006, dated 2014):

How the values were obtained:
T47D cells = assay: Scrape load/dye transfer (SL/DT) GJIC assay, T47D cells; type: cell-based, human
Protocol: In the experiments for FIG. 9, T47D cells were dosed with 100, 200 and 400 nM of PQ1 for 40 minutes. Lucifer yellow, a gap junctional permeable dye, was used to measure the GJIC. Rhodamine dextran was used as a control. The dotted line in FIG. 9 indicates the line of cut. This increase could be due to the interaction between the PQ1 and the connexin proteins which leads to the opening of the gap junction channel. PQ1 exerted no effect on the cell morphology of T47D cells (data not shown).
Scrape load dye transfer technique (SL/DT): Lucifer yellow is an intensely fluorescent […] dye having low molecular weight (Mr 457.2) and passes from one cell to another through gap junctions only. Rhodamine dextran is a high molecular weight polymer (Mr 10,000) used as a control as passes only through injured plasma membrane. Cells were grown to 90% confluency on cover slips, dosed with PQ 1 for 40 minutes. The 2.5 μl of 1% (w/v) Lucifer yellow and 0.75% (w/v) of Rhodamine dextran was mixed and added in the center of the coverslip. Two cuts crossing each other in the center of the coverslip were made. After three minutes, cells were washed with PBS and incubated at 37° C. in tissue culture media for 20 minutes. Cells were fixed and mounted on a slide, sealed and visualized under a fluorescence microscope at 10× objective.
Intercellular communication in many organs is maintained via GJIC. Several GJIC enhancers have been reported; however, an effective clinical drug targeting gap junction is not available at this time. The effect of PQ1 on the GJIC activity in T47D breast cancer cells was tested. […] Conversely, PQ1 has no effect on GJIC activity of human primary epithelial cells (MEC, normal cells) compared to its controls (data not shown). The distance of dye transfer from section cut to the farthest cells with dye was measured. […] MECs have uniform uptake of Lucifer yellow. This is due to the existing high level of gap junction activity of these normal cells.
Gap Junction Activity. […] Cells were mounted on a slide, sealed and visualized under a fluorescence microscope at 10× objective.

Cx43 = assay: Western blot of Cx43 and phosphorylated Cx43 in T47D cells; type: cell-based, human; conditions: 10, 100, 200 and 500 nM, 24 hours
Protocol: T47D cells were dosed with PQ1 for 24 hours. The Western blot analysis was performed as described in Materials and Methods. Whole cell extract was analyzed for Cx 43, Cx32, and Cx26. Experiment was performed at least three times.
Furthermore, whole cell extract of PQ1 treatment was analyzed for the changes in gap junctional proteins, connexins. Cells were treated with 10, 100, 200, and 500 nM PQ1 for 24 hours. Western blot analysis was performed against Cx26, Cx32, and Cx43 (FIG. 17). […] Anti-tubulin was used as a loading control.
Western Blot Analysis. Cells were grown in serum supplemented RPMI media until they were 90% confluent in 75 cm^2 flasks. Cells were kept in starving media containing phenol red-free DMEM with 5% charcoal dextran stripped serum, overnight. Cells were dosed with 0, 10, 100, 200 and 500 nM of PQ1 for 24 hours. Cells were washed three times with cold PBS and then were harvested using lysis buffer (20 mM Tris pH 7.5, 0.5 mM EDTA, 0.5 mM EGTA, 0.5% Triton X-100) with 1:1000 dilution of protease inhibitors (Sigma-Aldrich, Saint Louis, Mo.). Cell lysate was sonicated and centrifuged at 13,000 rpm for 30 minutes at 4° C. […] Western blots were detected by enhanced chemiluminescence detection reagents (Pierce, Rockford, Ill., USA).

Solubility in water = type: physicochemical; conditions: succinic acid salt

COc1cc(NCCCN)c2nccc(C)c2c1Oc1cccc(C(F)(F)F)c1.O=C(O)CCC(=O)O [PQ1, 6-Methoxy-8-[(3-aminopropyl)amino]-4-methyl-5-(3-trifluoromethylphenyloxy) quinoline succinic acid]
increase in distance of dye transfer (T47D cells; 200 nM, compared to control): 8.5 fold | gap junction activity (SL/DT) compared to controls (T47D cells; 100, 200 and 500 nM): significant increase | gap junctional activity (SL/DT) (T47D cells; 200 and 500 nM for 40 minutes): significant increase | Cx43 expression (Cx43): no effect | solubility in water (Solubility in water): soluble in water
